From PubChem BioAssay (NCI)
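1) Cells in 96-well plates. 2) Compound, 48 h, 5 concentrations. 3) Linear interpolation between surrounding doses. 4) Unreached endpoint = highest concentration. At the TGI there is no net growth.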

Experiments:
Experiment in all cases: growth of human tumour cells (NCI), 48 h
[1] = test system: CAKI-1 renal
[2] = test system: SK-MEL-28 melanoma
[3] = test system: RPMI-8226 leukemia
[4] = test system: EKVX NSCLC
[5] = test system: HS 578T breast
[6] = test system: T-47D breast
[7] = test system: A498 renal
[8] = test system: SNB-19 CNS
[9] = test system: KM12 colon
[10] = test system: COLO 205 colon
[11] = test system: PC-3 prostate
[12] = test system: MALME-3M melanoma
[13] = test system: OVCAR-3 ovarian
[14] = test system: HCC-2998 colon
[15] = test system: CCRF-CEM leukemia
[16] = test system: NCI-H460 lung
[17] = test system: HL-60(TB) leukemia
[18] = test system: HOP-92 NSCLC
[19] = test system: OVCAR-8 ovarian
[20] = test system: MDA-MB-435
[21] = test system: RXF 393 renal
[22] = test system: HT29 colon
[23] = test system: HCT-15 colon
[24] = test system: LOX IMVI melanoma
[25] = test system: SF-539 CNS
[26] = test system: SR leukemia
[27] = test system: SF-268 CNS
[28] = test system: UACC-62 melanoma
[29] = test system: NCI-H522 lung
[30] = test system: SK-MEL-2 melanoma
[31] = test system: MDA-N
[32] = test system: SW-620 colon
[33] = test system: NCI-H23 lung
[34] = test system: A549 NSCLC
[35] = test system: MDA-MB-231 breast
[36] = test system: OVCAR-4 ovarian
[37] = test system: TK-10 renal
[38] = test system: SN12C renal
[39] = test system: U251 CNS
[40] = test system: BT-549 breast
[41] = test system: 786-0 renal
[42] = test system: HCT-116 colon
[43] = test system: DU-145 prostate
[44] = test system: HOP-62 NSCLC
[45] = test system: NCI-H226 lung
[46] = test system: SK-OV-3 ovarian
[47] = test system: ACHN renal
[48] = test system: OVCAR-5 ovarian
[49] = test system: IGROV1 ovarian
[50] = test system: SF-295 CNS
[51] = test system: SNB-75 CNS
[52] = test system: MOLT-4 leukemia
[53] = test system: M14 melanoma
[54] = test system: SK-MEL-5 melanoma
[55] = test system: UACC-257 melanoma
[56] = test system: NCI/ADR-RES ovarian
[57] = test system: MCF7 breast
[58] = test system: UO-31 renal
[59] = test system: K-562 leukemia

SMILES: O=c1[nH]c2cc3[nH]c4ncccc4c(=O)c3cc2[nH]1
- TGI [1]: > 10 µM
- TGI [2]: > 10 µM
- TGI [3]: > 10 µM
- TGI [4]: > 10 µM
- TGI [5]: > 10 µM
- TGI [6]: > 10 µM
- TGI [7]: > 10 µM
- TGI [8]: > 10 µM
- TGI [9]: > 10 µM
- TGI [10]: > 10 µM
- TGI [11]: > 10 µM
- TGI [12]: > 10 µM
- TGI [13]: > 10 µM
- TGI [14]: > 10 µM
- TGI [15]: > 10 µM
- TGI [16]: > 10 µM
- TGI [17]: > 10 µM
- TGI [18]: > 10 µM
- TGI [19]: > 10 µM
- TGI [20]: > 10 µM
- TGI [21]: > 10 µM
- TGI [22]: > 10 µM
- TGI [23]: > 10 µM
- TGI [24]: > 10 µM
- TGI [25]: > 10 µM
- TGI [26]: > 10 µM
- TGI [27]: > 10 µM
- TGI [28]: > 10 µM
- TGI [29]: > 10 µM
- TGI [30]: > 10 µM
- TGI [31]: > 10 µM
- TGI [32]: > 10 µM
- TGI [33]: > 10 µM
- TGI [34]: > 10 µM
- TGI [35]: > 10 µM
- TGI [36]: > 10 µM
- TGI [37]: > 10 µM
- TGI [38]: > 10 µM
- TGI [39]: > 10 µM
- TGI [40]: > 10 µM
- TGI [41]: > 10 µM
- TGI [42]: > 10 µM
- TGI [43]: > 10 µM
- TGI [44]: > 10 µM
- TGI [45]: > 10 µM
- TGI [46]: > 10 µM
- TGI [47]: > 10 µM
- TGI [48]: > 10 µM
- TGI [49]: > 10 µM
- TGI [50]: > 10 µM
- TGI [51]: > 10 µM
- TGI [52]: > 10 µM
- TGI [53]: > 10 µM
- TGI [54]: > 10 µM
- TGI [55]: > 10 µM
- TGI [56]: > 10 µM

SMILES: COc1cc(S(=O)(=O)Nc2ccc(-c3csc(N4C(=O)CSC4c4ccccc4)n3)cc2)ccc1Cl (configuration not stated)
- TGI [1]: > 100 µM
- TGI [2]: 65.1 µM
- TGI [3]: 89.3 µM
- TGI [4]: > 100 µM
- TGI [5]: > 100 µM
- TGI [6]: 44.7 µM
- TGI [7]: 3.61 µM
- TGI [8]: > 100 µM
- TGI [9]: > 100 µM
- TGI [10]: > 100 µM
- TGI [57]: 87.4 µM
- TGI [11]: > 100 µM
- TGI [12]: > 100 µM
- TGI [13]: > 100 µM
- TGI [14]: 42.4 µM
- TGI [15]: > 100 µM
- TGI [16]: > 100 µM
- TGI [58]: > 100 µM
- TGI [17]: 55.7 µM
- TGI [18]: 54.4 µM
- TGI [19]: > 100 µM
- TGI [20]: > 100 µM
- TGI [21]: 64.5 µM
- TGI [22]: > 100 µM
- TGI [23]: > 100 µM
- TGI [24]: > 100 µM
- TGI [25]: > 100 µM
- TGI [26]: > 100 µM
- TGI [27]: > 100 µM
- TGI [28]: 39.6 µM
- TGI [29]: > 100 µM
- TGI [30]: > 100 µM
- TGI [31]: > 100 µM
- TGI [32]: > 100 µM
- TGI [33]: > 100 µM
- TGI [34]: > 100 µM
- TGI [36]: > 100 µM
- TGI [38]: > 100 µM
- TGI [40]: > 100 µM
- TGI [41]: > 100 µM
- TGI [59]: > 100 µM
- TGI [42]: > 100 µM
- TGI [43]: > 100 µM
- TGI [44]: > 100 µM
- TGI [45]: > 100 µM
- TGI [46]: > 100 µM
- TGI [47]: > 100 µM
- TGI [48]: > 100 µM
- TGI [49]: > 100 µM
- TGI [50]: > 100 µM
- TGI [51]: > 100 µM
- TGI [52]: > 100 µM
- TGI [53]: > 100 µM
- TGI [54]: > 100 µM
- TGI [55]: > 100 µM
- TGI [56]: > 100 µM
